According to ChEMBL document CHEMBL1201861, “Genomics of Drug Sensitity in Cancer screening data, Wellcome Trust Sanger Institute”:
pIC50: −log10 of the molar value.

Tests used:
Assay in all cases: cells
NCI-H1155 = assay type: functional, cell-based, Homo sapiens; conditions: Homo sapiens, NCI-H1155;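 further: cell growth inhibition measured by a viability assay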
Description: SANGER: Inhibition of human NCI-H1155 cell growth in a cell viability assay.

HCE-T = assay type: functional, cell-based, Homo sapiens; conditions: Homo sapiens, HCE-T;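 further: cell viability assay read-out, reporting inhibition of HCE-T cell growth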
Description: SANGER: Inhibition of human HCE-T cell growth in a cell viability assay.

KALS-1 = assay type: functional, cell-based, Homo sapiens; conditions: Homo sapiens, KALS-1; read-out: IC50;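 further: growth inhibition of KALS-1 cells, determined with a cell viability assay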
Description: SANGER: Inhibition of human KALS-1 cell growth in a cell viability assay.

HDLM-2 = assay type: functional, cell-based, Homo sapiens; conditions: Homo sapiens, HDLM-2;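 further: cell viability assay measuring suppression of HDLM-2 proliferation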
Description: SANGER: Inhibition of human HDLM-2 cell growth in a cell viability assay.

ETK-1 = assay type: functional, cell-based, Homo sapiens; conditions: Homo sapiens, ETK-1;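 further: growth inhibition of human ETK-1 cells, read out with a cell viability assay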
Description: SANGER: Inhibition of human ETK-1 cell growth in a cell viability assay.

SK-MEL-1 = assay type: functional, cell-based, Homo sapiens; conditions: Homo sapiens, SK-MEL-1;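 further: growth inhibition of human SK-MEL-1 cells, read out by a cell viability assay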
Description: SANGER: Inhibition of human SK-MEL-1 cell growth in a cell viability assay.

ES8 = assay type: functional, cell-based, Homo sapiens; conditions: Homo sapiens, ES8;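 further: growth inhibition of human ES8 cells, read out with a cell viability assay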
Description: SANGER: Inhibition of human ES8 cell growth in a cell viability assay.

SBC-1 = assay type: functional, cell-based, Homo sapiens; conditions: Homo sapiens, SBC-1;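 further: cell viability assay measuring growth inhibition of the SBC-1 cell line, IC50 being the concentration that halves growth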
Description: SANGER: Inhibition of human SBC-1 cell growth in a cell viability assay.

BB30-HNC = assay type: functional, cell-based, Homo sapiens; conditions: Homo sapiens, BB30-HNC;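 further: growth inhibition of the cultured cell line, read out by a cell viability assay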
Description: SANGER: Inhibition of human BB30-HNC cell growth in a cell viability assay.

SF-268 = assay type: functional, cell-based, Homo sapiens; conditions: Homo sapiens, SF-268;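 further: growth inhibition of SF-268 cells determined with a cell viability assay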
Description: SANGER: Inhibition of human SF268 cell growth in a cell viability assay.

NCI-H1648 = assay type: functional, cell-based, Homo sapiens; conditions: Homo sapiens, NCI-H1648;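 further: cell viability assay measuring inhibition of NCI-H1648 cell growth, from the Sanger screening data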
Description: SANGER: Inhibition of human NCI-H1648 cell growth in a cell viability assay.

EW-3 = assay type: functional, cell-based, Homo sapiens; conditions: Homo sapiens, EW-3;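 further: cell viability assay read-out, IC50 reflects inhibition of growth of the EW-3 cells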
Description: SANGER: Inhibition of human EW-3 cell growth in a cell viability assay.

Ramos-2G6-4C10 = assay type: functional, cell-based, Homo sapiens; conditions: Homo sapiens, Ramos-2G6-4C10;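 further: growth inhibition of the cell line, measured by a cell viability read-out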
Description: SANGER: Inhibition of human Ramos-2G6-4C10 cell growth in a cell viability assay.

Becker = assay type: functional, cell-based, Homo sapiens; conditions: Homo sapiens, Becker;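 further: growth inhibition of Becker cells, read out with a cell viability assay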
Description: SANGER: Inhibition of human Becker cell growth in a cell viability assay.

CAS-1 = assay type: functional, cell-based, Homo sapiens; conditions: Homo sapiens, CAS-1;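 further: growth inhibition of CAS-1 cells, measured with a cell viability assay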
Description: SANGER: Inhibition of human CAS-1 cell growth in a cell viability assay.

COLO-684 = assay type: functional, cell-based, Homo sapiens; conditions: Homo sapiens, COLO-684
Description: SANGER: Inhibition of human COLO-684 cell growth in a cell viability assay.

D283 Med = assay type: functional, cell-based, Homo sapiens; conditions: Homo sapiens, D283 Med
Description: SANGER: Inhibition of human D-283MED cell growth in a cell viability assay.

BE-13 = assay type: functional, cell-based, Homo sapiens; conditions: Homo sapiens, BE-13;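 further: growth inhibition of human BE-13 cells, measured with a cell viability assay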
Description: SANGER: Inhibition of human BE-13 cell growth in a cell viability assay.

NCI-H1395 = assay type: functional, cell-based, Homo sapiens; conditions: Homo sapiens, NCI-H1395;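 further: cell viability assay read-out quantifying reduced proliferation of human NCI-H1395 cells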
Description: SANGER: Inhibition of human NCI-H1395 cell growth in a cell viability assay.

JVM-3 = assay type: functional, cell-based, Homo sapiens; conditions: Homo sapiens, JVM-3;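 further: growth inhibition of human JVM-3 cells, read out with a cell viability assay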
Description: SANGER: Inhibition of human JVM-3 cell growth in a cell viability assay.

MZ1-PC = assay type: functional, cell-based, Homo sapiens; conditions: Homo sapiens, MZ1-PC;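 further: cell viability assay measuring growth inhibition of human MZ1-PC cells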
Description: SANGER: Inhibition of human MZ1-PC cell growth in a cell viability assay.

TK-10 = assay type: functional, cell-based, Homo sapiens; conditions: Homo sapiens, TK-10;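 further: growth inhibition of TK-10 cells, read out in a cell viability assay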
Description: SANGER: Inhibition of human TK10 cell growth in a cell viability assay.

HT = assay type: functional, cell-based, Homo sapiens; conditions: Homo sapiens, HT
Description: SANGER: Inhibition of human HT cell growth in a cell viability assay.

SW684 = assay type: functional, cell-based, Homo sapiens; conditions: Homo sapiens, SW684; read-out: IC50;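 further: growth inhibition of human SW684 cells, measured by a cell viability assay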
Description: SANGER: Inhibition of human SW684 cell growth in a cell viability assay.

KU812 cell line = assay type: functional, cell-based, Homo sapiens; conditions: Homo sapiens, KU812;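 further: growth inhibition of KU812 cells, read out with a cell viability assay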
Description: SANGER: Inhibition of human KU812 cell growth in a cell viability assay.

LS-123 = assay type: functional, cell-based, Homo sapiens; conditions: Homo sapiens, LS-123
Description: SANGER: Inhibition of human LS-123 cell growth in a cell viability assay.

ML-2 = assay type: functional, cell-based, Homo sapiens; conditions: Homo sapiens, ML-2;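 further: growth inhibition of ML-2 cells, measured with a cell viability readout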
Description: SANGER: Inhibition of human ML-2 cell growth in a cell viability assay.

NCI-H82 = assay type: functional, cell-based, Homo sapiens; conditions: Homo sapiens, NCI-H82;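 further: growth inhibition of NCI-H82 cells, measured with a cell viability readout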
Description: SANGER: Inhibition of human NCI-H82 cell growth in a cell viability assay.

RKO = assay type: functional, cell-based, Homo sapiens; conditions: Homo sapiens, RKO;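 further: growth inhibition of human RKO cells, read out with a cell viability assay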
Description: SANGER: Inhibition of human RKO cell growth in a cell viability assay.

A704 = assay type: functional, cell-based; conditions: Homo sapiens;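 further: growth inhibition of human A704 cells, read out with a cell viability assay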
Description: SANGER: Inhibition of human A704 cell growth in a cell viability assay.

COLO-824 = assay type: functional, cell-based, Homo sapiens; conditions: Homo sapiens, COLO-824
Description: SANGER: Inhibition of human COLO-824 cell growth in a cell viability assay.

EOL1 = assay type: functional, cell-based, Homo sapiens; conditions: Homo sapiens, EOL1;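 further: growth inhibition of EoL-1 cells, read out by a cell viability assay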
Description: SANGER: Inhibition of human EoL-1-cell cell growth in a cell viability assay.

A498 = assay type: functional, cell-based, Homo sapiens; conditions: Homo sapiens, A498;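 further: growth inhibition of human A498 cells, read out with a cell viability assay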
Description: SANGER: Inhibition of human A498 cell growth in a cell viability assay.

A388 = assay type: functional, cell-based; conditions: Homo sapiens;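 further: growth inhibition of human A388 cells, read out with a cell viability assay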
Description: SANGER: Inhibition of human A388 cell growth in a cell viability assay.

EW-13 = assay type: functional, cell-based, Homo sapiens; conditions: Homo sapiens, EW-13; read-out: IC50;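 further: growth inhibition of EW-13 cells, read out with a cell viability assay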
Description: SANGER: Inhibition of human EW-13 cell growth in a cell viability assay.

C2BBe1 = assay type: functional, cell-based, Homo sapiens; conditions: Homo sapiens, C2BBe1;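 further: growth inhibition of C2BBe1 cells, read out through a viability assay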
Description: SANGER: Inhibition of human C2BBe1 cell growth in a cell viability assay.

MMAC-SF = assay type: functional, cell-based; conditions: Homo sapiens;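 further: growth inhibition of human MMAC-SF cells, read out with a cell viability assay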
Description: SANGER: Inhibition of human MMAC-SF cell growth in a cell viability assay.

LS-513 = assay type: functional, cell-based, Homo sapiens; conditions: Homo sapiens, LS-513
Description: SANGER: Inhibition of human LS-513 cell growth in a cell viability assay.

TE-12 = assay type: functional, cell-based, Homo sapiens; conditions: Homo sapiens, TE-12;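 further: growth inhibition of TE-12 cells, read out by a cell viability assay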
Description: SANGER: Inhibition of human TE-12 cell growth in a cell viability assay.

ATN-1 = assay type: functional, cell-based, Homo sapiens; conditions: Homo sapiens, ATN-1;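 further: growth inhibition of human ATN-1 cells, read out with a cell viability assay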
Description: SANGER: Inhibition of human ATN-1 cell growth in a cell viability assay.

A101D = assay type: functional, cell-based, Homo sapiens; conditions: Homo sapiens, A101D;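 further: growth inhibition of the cell line, measured with a viability assay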
Description: SANGER: Inhibition of human A101D cell growth in a cell viability assay.

DU-4475 = assay type: functional, cell-based, Homo sapiens; conditions: Homo sapiens, DU-4475
Description: SANGER: Inhibition of human DU-4475 cell growth in a cell viability assay.

MC116 = assay type: functional, cell-based, Homo sapiens; conditions: Homo sapiens, MC116;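 further: growth inhibition of MC116 cells, read out with a cell viability assay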
Description: SANGER: Inhibition of human MC116 cell growth in a cell viability assay.

TE-11 = assay type: functional, cell-based; conditions: Homo sapiens;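 further: growth inhibition of human TE-11 cells, read out by a cell viability assay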
Description: SANGER: Inhibition of human TE-11 cell growth in a cell viability assay.

SW 954 = assay type: functional, cell-based, Homo sapiens; conditions: Homo sapiens, SW 954;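 further: growth inhibition of SW954 human cancer cells, read out as cell viability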
Description: SANGER: Inhibition of human SW954 cell growth in a cell viability assay.

ES1 = assay type: functional, cell-based, Homo sapiens; conditions: Homo sapiens, ES1;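 further: growth inhibition of ES1 cells, read out with a cell viability assay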
Description: SANGER: Inhibition of human ES1 cell growth in a cell viability assay.

SF-126 = assay type: functional, cell-based, Homo sapiens; conditions: Homo sapiens, SF-126;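 further: growth inhibition of human SF126 cells, read out with a cell viability assay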
Description: SANGER: Inhibition of human SF126 cell growth in a cell viability assay.

ACN = assay type: functional, cell-based, Homo sapiens; conditions: Homo sapiens, ACN;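 further: growth inhibition of the human ACN cell line, read out via cell viability testing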
Description: SANGER: Inhibition of human ACN cell growth in a cell viability assay.

GB-1 = assay type: functional, cell-based, Homo sapiens; conditions: Homo sapiens, GB-1;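 further: growth of GB-1 cells judged by a viability assay, IC50 marks the concentration inhibiting growth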
Description: SANGER: Inhibition of human GB-1 cell growth in a cell viability assay.

SH-4 = assay type: functional, cell-based; conditions: Homo sapiens;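 further: growth inhibition of SH-4 cells, read out with a cell viability assay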
Description: SANGER: Inhibition of human SH-4 cell growth in a cell viability assay.

Structure (SMILES): Cc1ccc(C(=O)Nc2ccc(CN3CCN(C)CC3)c(C(F)(F)F)c2)cc1C#Cc1cnc2cccnn12 [PONATINIB]
- pIC50 (NCI-H1155): < 6.29
- pIC50 (HCE-T): < 6.29
- pIC50 (KALS-1): < 6.29
- pIC50 (HDLM-2): < 6.29
- pIC50 (ETK-1): < 6.29
- pIC50 (SK-MEL-1): < 6.29
- pIC50 (ES8): < 6.29
- pIC50 (SBC-1): < 6.29
- pIC50 (BB30-HNC): < 6.29
- pIC50 (SF-268): 6.35
- pIC50 (NCI-H1648): < 6.29
- pIC50 (EW-3): < 6.29
- pIC50 (Ramos-2G6-4C10): < 6.29
- pIC50 (Becker): < 6.29
- pIC50 (CAS-1): 6.55
- pIC50 (COLO-684): < 6.29
- pIC50 (D283 Med): < 6.29
- pIC50 (BE-13): 8.59
- pIC50 (NCI-H1395): < 6.29
- pIC50 (JVM-3): < 6.29
- pIC50 (MZ1-PC): 6.95
- pIC50 (TK-10): < 6.29
- pIC50 (HT): < 6.29
- pIC50 (SW684): < 6.29
- pIC50 (KU812 cell line): 7.55
- pIC50 (LS-123): < 6.29
- pIC50 (ML-2): < 6.29
- pIC50 (NCI-H82): < 6.29
- pIC50 (RKO): < 6.29
- pIC50 (A704): < 6.29
- pIC50 (COLO-824): < 6.29
- pIC50 (EOL1): > 8.70
- pIC50 (A498): < 6.29
- pIC50 (A388): < 6.29
- pIC50 (EW-13): < 6.29
- pIC50 (C2BBe1): < 6.29
- pIC50 (MMAC-SF): < 6.29
- pIC50 (LS-513): < 6.29
- pIC50 (TE-12): < 6.29
- pIC50 (ATN-1): < 6.29
- pIC50 (A101D): < 6.29
- pIC50 (DU-4475): 6.31
- pIC50 (MC116): < 6.29
- pIC50 (TE-11): < 6.29
- pIC50 (SW 954): < 6.29
- pIC50 (ES1): < 6.29
- pIC50 (SF-126): 6.77
- pIC50 (ACN): 6.46
- pIC50 (GB-1): 6.90

Structure (SMILES): CC(C)C[C@H](NC(=O)[C@H](Cc1ccccc1)NC(=O)c1cnccn1)B(O)O [BORTEZOMIB]
- pIC50 (NCI-H1155): < 7.70
- pIC50 (HCE-T): 9.36
- pIC50 (KALS-1): 9.03
- pIC50 (HDLM-2): < 7.70
- pIC50 (ETK-1): 8.55
- pIC50 (SK-MEL-1): < 7.70
- pIC50 (ES8): 9.40
- pIC50 (SH-4): 9.76
- pIC50 (SBC-1): 8.30
- pIC50 (BB30-HNC): 9.47
- pIC50 (SF-268): 9.03
- pIC50 (NCI-H1648): 8.38
- pIC50 (EW-3): < 7.70
- pIC50 (Ramos-2G6-4C10): 9.16
- pIC50 (Becker): 8.74
- pIC50 (CAS-1): 8.86
- pIC50 (COLO-684): 8.44
- pIC50 (D283 Med): < 7.70
- pIC50 (BE-13): 8.71
- pIC50 (NCI-H1395): < 7.70
- pIC50 (JVM-3): 7.89
- pIC50 (MZ1-PC): 8.45
- pIC50 (TK-10): 9.17
- pIC50 (HT): 8.52
- pIC50 (SW684): 9.09
- pIC50 (KU812 cell line): 8.62
- pIC50 (LS-123): 8.69
- pIC50 (ML-2): 9.09
- pIC50 (NCI-H82): < 7.70
- pIC50 (RKO): 8.97
- pIC50 (COLO-824): < 7.70
- pIC50 (EOL1): 7.74
- pIC50 (A388): 9.45
- pIC50 (EW-13): < 7.70
- pIC50 (C2BBe1): 8.54
- pIC50 (MMAC-SF): 9.67
- pIC50 (LS-513): 9.13
- pIC50 (TE-12): 8.37
- pIC50 (ATN-1): 8.05
- pIC50 (A101D): 9.65
- pIC50 (DU-4475): 8.87
- pIC50 (MC116): < 7.70
- pIC50 (SW 954): 8.54
- pIC50 (ES1): 9.37
- pIC50 (SF-126): 9.15
- pIC50 (ACN): 9.38
- pIC50 (GB-1): 8.74

Structure (SMILES): O=C1NC(=O)c2c1c(-c1ccccc1Cl)cc1[nH]c3ccc(O)cc3c21
- pIC50 (NCI-H1155): < 5.70
- pIC50 (HCE-T): < 5.70
- pIC50 (KALS-1): 6.08
- pIC50 (HDLM-2): < 5.70
- pIC50 (ETK-1): < 5.70
- pIC50 (SK-MEL-1): < 5.70
- pIC50 (ES8): < 5.70
- pIC50 (SH-4): 5.78
- pIC50 (SBC-1): < 5.70
- pIC50 (BB30-HNC): 5.87
- pIC50 (SF-268): < 5.70
- pIC50 (NCI-H1648): < 5.70
- pIC50 (EW-3): 6.02
- pIC50 (Ramos-2G6-4C10): 6.21
- pIC50 (Becker): < 5.70
- pIC50 (CAS-1): < 5.70
- pIC50 (COLO-684): < 5.70
- pIC50 (D283 Med): < 5.70
- pIC50 (BE-13): < 5.70
- pIC50 (NCI-H1395): < 5.70
- pIC50 (JVM-3): 5.84
- pIC50 (MZ1-PC): < 5.70
- pIC50 (TK-10): < 5.70
- pIC50 (HT): < 5.70
- pIC50 (SW684): < 5.70
- pIC50 (KU812 cell line): < 5.70
- pIC50 (LS-123): < 5.70
- pIC50 (ML-2): < 5.70
- pIC50 (NCI-H82): < 5.70
- pIC50 (RKO): < 5.70
- pIC50 (COLO-824): < 5.70
- pIC50 (EOL1): < 5.70
- pIC50 (A498): < 5.70
- pIC50 (A388): < 5.70
- pIC50 (EW-13): < 5.70
- pIC50 (C2BBe1): < 5.70
- pIC50 (MMAC-SF): < 5.70
- pIC50 (LS-513): < 5.70
- pIC50 (TE-12): < 5.70
- pIC50 (ATN-1): 6.50
- pIC50 (A101D): < 5.70
- pIC50 (DU-4475): < 5.70
- pIC50 (MC116): < 5.70
- pIC50 (TE-11): < 5.70
- pIC50 (SW 954): 6.67
- pIC50 (ES1): < 5.70
- pIC50 (SF-126): < 5.70
- pIC50 (ACN): < 5.70
- pIC50 (GB-1): < 5.70
